Laboratory results: patent publication US20040242461A1, “Modulators of telomere stability” (priority 2003, published 2004)
Entries after “also recorded” stand apart in the source; their conditions may differ. Blank lines part the entries; values can stand above or below the compound they belong to.

Key:
[1] = test system: C57BI/6 mouse cardiomyocytes; test: Apoptosis by flow cytometry after antisense transfection of mouse cardiomyocytes; format: cell-based; conditions: reduction of endogenous TRF2
Description: (§1) The sequences used were: antisense TRF2 (asTRF2), 5′-[…]-3′ (SEQ ID NO:21); sense TRF2 (sTRF2), 5′-[…]-3′ (SEQ ID NO:22), antisense GFP (Sano, M. et al., 2002), 5′-[…]-3′ (SEQ ID NO:23). Oligonucleotides were transfected into 1-2 day-old C57BI/6 mouse cardiomyocytes, cultured as above, using Oligofectamine (Invitrogen).
Hypodiploid DNA was detected by two-color flow cytometry using propidium iodide for DNA content and FITC-conjugated MF20 (Oh, H. et al., 2001; Akli, S. et al., 1999) or FITC-conjugated antibody to sarcomeric myosin heavy chains to confirm myocyte identity, sampling>5000 myocytes for each histogram.

TRF2 [2] = test: Endogenous TRF2 expression in NIH 3T3 cells after antisense oligonucleotide; format: cell-based, mouse; conditions: NIH 3T3 cells (not shown)
Chk2 = Chk2 immune complex kinase assay after antisense transfection of mouse cardiomyocytes; format: cell-based; conditions: reduction of endogenous TRF2
Method: as §1
To assay Chk2 activity, samples were lysed in 20 mM Tris-HCl (pH 8.0), 0.1% Triton X-100, 10 mM NaF, 1 mM NaVa3VO4, […], 1 mM PMSF, then incubated for 1 hr with antibody to Chk2 and protein A/G-Sepharose (Pharmacia). lmrunoprecipitates were washed and assayed in the presence of 30 μM CHKtide substrate peptide ([…] (SEQ ID NO:24), Upstate Biotechnology, Inc), 40 μM adenosine triphosphate, 15 μCi [γ-^32P]ATP, for 30 min at 30° C. Proteins were resolved by electrophoresis in SDS-polyacrylamide gels and visualized by autoradiography. Aliquots of Chk2 immunoprecipitates were also used for Western blotting, allowing activity and content to be compared in the same samples.

TRF2 [3] = test: Western blot of TRF2 after antisense oligonucleotide transfection of mouse cardiomyocytes; format: cell-based; conditions: Oligofectamine transfection
Description: as §1
(§2) Proteins were resolved by electrophoresis in 10% SDS-polyacrylamide gels and transferred to membranes by electroblotting. Antibodies were: human and mouse TRF2 (Calbiochem), human and mouse TRF1 (Calbiochem), phospho-Chk2 (Thr68; Cell Signaling), sarcomeric a-actin and myc (Sigmna), FLAG epitope (M2, Kodak), GFP (Clontech), Chk2 (Santa Cruz), poly (ADP-ribose) polymerase (PARP, Oncogene). To detect exogenous TRF2 in virus infected cardiomyocytes, goat and rabbit antibodies to TRF2 were used (C-16, H-300, Santa Cruz); endogenous rat TRF2 was detected using rabbit antibody to TRF2 (Alpha Diagnostic International). After blocking with 5% non-fat milk plus 0.1% Tween-20, blots were incubated with primary antibodies (1:500), horseradish peroxidase-conjugated secondary antibodies (1:3000; Amersham Pharmacia Biotech), and enhanced chemiluminescence reagents (Amersham Pharmacia Biotech).

telomere length [4] = test: Telomere length by Southern blot after antisense transfection of mouse cardiomyocytes; format: cell-based; conditions: reduction of endogenous TRF2
Description: as §1
(§3) DNA was digested with Rsa I, resolved by electrophoresis in 0.5% agarose, transferred to Hybond-N^+ membranes (Amersham Pharmacia Biotech), and hybridized using a ^32P-labeled (TTAGGG)4 telomeric probe (Oh, H. et al., 2001; Counter, C. M., 1992). Mean telomere length was ascertained by Phosphor-Imager scanning (Molecular Dynamics).

[5] = test system: poly (ADP-ribose) polymerase (PARP); test: PARP cleavage by Western blot after antisense transfection of mouse cardiomyocytes; format: cell-based; conditions: reduction of endogenous TRF2
Description: as §1, §2

HGK = biological target: T1, HGK (Homo sapiens, UniProt O95819); test: HGK immune complex kinase assay (recombinant FLAG-HGK in cardiomyocytes); format: cell-based; conditions: for HGK activity after agonist: 50 μg/ml C2-ceramide, 200 μM H2O2
T1 construct: expressed in transfected cells
T1 sequence (O95819 whole entry): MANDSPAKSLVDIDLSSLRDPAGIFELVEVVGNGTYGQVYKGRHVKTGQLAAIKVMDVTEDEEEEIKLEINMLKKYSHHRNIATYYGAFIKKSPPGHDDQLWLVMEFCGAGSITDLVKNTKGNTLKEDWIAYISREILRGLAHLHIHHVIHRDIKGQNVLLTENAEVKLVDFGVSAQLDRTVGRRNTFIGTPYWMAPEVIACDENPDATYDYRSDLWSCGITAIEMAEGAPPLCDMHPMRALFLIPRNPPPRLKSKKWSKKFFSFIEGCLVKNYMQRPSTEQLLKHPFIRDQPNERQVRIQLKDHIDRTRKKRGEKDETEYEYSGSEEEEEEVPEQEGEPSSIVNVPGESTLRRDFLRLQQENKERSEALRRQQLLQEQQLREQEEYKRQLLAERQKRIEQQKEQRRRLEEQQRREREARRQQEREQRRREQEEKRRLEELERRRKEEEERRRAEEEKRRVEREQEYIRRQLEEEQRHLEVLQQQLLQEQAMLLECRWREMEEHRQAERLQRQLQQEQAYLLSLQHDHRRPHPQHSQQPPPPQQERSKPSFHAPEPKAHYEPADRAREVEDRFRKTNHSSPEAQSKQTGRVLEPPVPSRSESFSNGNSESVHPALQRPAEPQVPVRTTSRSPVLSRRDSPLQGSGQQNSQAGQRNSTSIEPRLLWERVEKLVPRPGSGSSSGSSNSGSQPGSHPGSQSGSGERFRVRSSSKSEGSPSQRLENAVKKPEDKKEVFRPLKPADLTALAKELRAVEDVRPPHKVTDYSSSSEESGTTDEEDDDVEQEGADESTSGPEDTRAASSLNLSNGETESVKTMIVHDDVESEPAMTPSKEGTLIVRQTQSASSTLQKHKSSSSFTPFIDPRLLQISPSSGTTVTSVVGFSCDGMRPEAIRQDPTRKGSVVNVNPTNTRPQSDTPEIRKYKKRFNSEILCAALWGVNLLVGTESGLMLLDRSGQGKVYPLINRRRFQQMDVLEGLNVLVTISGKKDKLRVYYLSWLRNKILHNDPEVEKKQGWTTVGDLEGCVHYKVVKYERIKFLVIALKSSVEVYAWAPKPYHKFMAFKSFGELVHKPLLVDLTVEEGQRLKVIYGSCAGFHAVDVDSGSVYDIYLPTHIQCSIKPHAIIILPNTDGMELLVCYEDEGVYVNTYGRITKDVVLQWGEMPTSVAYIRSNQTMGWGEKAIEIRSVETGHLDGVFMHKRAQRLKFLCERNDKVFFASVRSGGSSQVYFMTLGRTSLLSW
Description: HGK was alternatively spliced, with the presence or absence of an SH3-like domain being one potentially important difference. […] Dominant-negative, FLAG-tagged JNK1 (JNK1 APF). Viruses were engineered using pAd-Easy-1 and pShuttleCMV. Adenoviruses encoding wild-type and dominant-negative TRF2 were constructed analogously (Oh et al., 2003), using cDNAs.
For HGK immune complex kinase assays, recombinant HGK was precipitated using M2 antibody and protein G-Sepharose, in the lysis buffer above. Precipitates were washed twice in lysis buffer, twice with 500 mM LiCl, 100 mM Tris-HCl, pH 7.6, 0.1% Triton X-100, and twice with kinase buffer (20 mM MOPS, pH 7.6, 2 mM EGTA, 10 mM MgCl2, 1 mM dithiothreitol, 0.1% Triton X-100, 1 mM Na3VO4), then were mixed with 10 μg of myelin basic protein (MBP) (Invitrogen, Carlsbad, Calif.), as substrate, 15 μM ATP, and 10 μCi [γ-^32P]ATP in 30 μl of kinase buffer for 30 min at 30° C. (Yao et al., 1999). Reaction mixtures were resolved by SDS-polyacrylamide gel electrophoresis, then were analysed by autoradiography and Western blotting as above.

cardiomyocytes = test: Apoptosis as hypodiploid DNA by two-color flow cytometry in cultured cardiomyocytes; format: cell-based, rat
Description: Myocytes were infected using a multiplicity of infection of 20. […] Nuclei were stained with 4′,6-diamidino-2-phenylindole (DAPI). Images were captured using a Zeiss Axioplan 2 epifluorescence microscope.
Ventricular myocytes from 1 to 2 day-old Sprague-Dawley rats were enzymatically dissociated, then subjected to Percoll gradient centrifugation and preplating to enrich for cardiomyocytes. After overnight culture in medium with 10% horse serum, cells were infected at a multiplicity of infection of 10, then cultured in serum-free medium for 24 to 48 hr (Oh et al., 2003). Where indicated, C2-ceramide (N-acetyl-D-sphingosine; ICN, Costa Mesa, Calif.), 5 mg/ml in dimethylsulfoxide (DMSO), was added at a final concentration of 20-50 μg/ml.

TRF2 [6] = test: Western blot of TRF2 protein levels in cultured cardiomyocytes; format: cell-based, rat
Description: Ventricular myocytes from 2 day-old Sprague-Dawley rats were purified and cultured (Oh, H. et al., 2001; Akli, S. et al., 1999); by this age, ventricular myocytes become refractory to serum-induced Gl exit, after initial serum-starvation in vitro (Akli, S. et al., 1999). Plasmids for human TRF1, TRF2, and the corresponding dominant-negative truncations (TRF1DM, TRF2DBDM) were provided by Dr. Titia de Lange (Rockefeller University) (Karlseder, J. et al., 1999). Adenoviruses coexpressing enhanced green fluorescent protein (eGFP) were generated using pAdTrack-cytomegalovirus (CMV) and pShuttle-CMV (provided by Dr. Bert Vogelstein, Johns Hopkins Oncology Center) (Oh, H. et al., 2001; He, T. C., 1998). Myocytes were infected using a multiplicity of infection of 20. To visualize TRF1/2 after gene transfer, myocytes were fixed in 70% ethanol, then incubated sequentially with tetramethyl rhodamine isothiocyanate-conjugated MF-20 antibody to sarcomeric myosin heavy chains to confirm cell type (University of Iowa Hybridoma Bank), rabbit antibodies to TRF1 and TRF2 (#581420 and 581425; 1:500, Calbiochem) and fluorescein isothiocyanate (FITC)-conjugated goat antibody to rabbit IgG (1:1000, Sigma). Nuclei were stained with 4′,6-diamidino-2-phenylindole (DAPI). Images were captured using a Zeiss Axioplan 2 epifluorescence microscope.
as §2, with “After blocking with 5% non-fat milk plus 0.1% Tween-20, blots were incubated with primary antibodies (1:500), horseradish peroxidase-conjugated secondary antibodies (1:3000; Amersham Pharmacia Biotech), and enhanced chemiluminescence reagents (Amersham Pharmacia Biotech).” left out

[7] = test system: poly (ADP-ribose) polymerase (PARP); test: PARP cleavage / total PARP by Western blot in cultured cardiomyocytes; format: cell-based, rat
Description: as §2
Cells were lysed in 20 mM HEPES, pH 7.4, 2 mM EGTA, 50 mM glycerophosphate, 1% Triton X-100, 10% glycerol, 1 mM dithiothreitol, 2 μg/ml leupeptin, 5 μg/ml aprotinin, 1 mM phenylmethylsulfonyl fluoride, 1 mM Na3VO4. Lysates were resolved by SDS-polyacrylamide gel electrophoresis and transferred to optitran (Schleicher & Schuell, Keene, N.H.) membranes for Western blotting. […]

[8] = test system: αMHC-TRF2 mice and non-transgenic littermates; test: Doxorubicin cardiomyopathy in αMHC-TRF2 mice and non-transgenic littermates; conditions: 15 mg/kg intraperitoneally
Method: Cardiac-specific transgenic mice were created by subcloning the TRF2 and dnTRF2 cDNAs behind the 5.5 kb mouse αMHC promoter (Subramaniam et al., 1991). The resultant plasmids were injected into the pronuclei of fertilized FVB/N oocytes, and tail DNA was used to screen for inheritance of the transgenes. Doppler and M-mode echocardiography were performed as described (Oh et al., 2003; and Minamino et al., 2002).
To test for cardiac protection, 10-12 week-old αLMHC-TRF2 mice (n=14) and non-transgenic littermates (n=14) were injected intraperitoneally with 15 mg/kg doxorubicin.

telomere length [9] = test: Telomere length by Southern blot with telomeric probe in cultured cardiomyocytes; format: cell-based, rat; conditions: gene transfer or treatment
Description: as §3

[10] = cultured cardiomyocytes, gene transfer or treatment

Compound: 5′-CCTGGGCTGCCGGCTCGAGC-3′ (all phosphorothioate, sugars by position and methylation of C not given here) [antisense TRF2]
apoptosis [1]: apoptosis
endogenous TRF2 expression (TRF2 [2]): inhibited endogenous TRF2 expression effectively
Chk2 activation (Chk2): Chk2 activation
TRF2 protein level (TRF2 [3]): specifically reduced
telomere shortening (telomere length [4]): telomere shortening
PARP cleavage [5]: PARP cleavage
induction of HGK activity (HGK; antisense suppression of endogenous TRF2, antisense GFP as control): more than 50%
increase of HGK kinase activity (HGK; mouse cardiomyocytes, antisense oligo transfection, HGK adenovirus): 1.5 fold

Compound: CCCCCCCCCCCCC/C=C/[C@@H](O)[C@H](CO)NC(C)=O [ceramide, N-acetyl-D-sphingosine]
increase in hypodiploid myocytes (cardiomyocytes; ceramide treatment): 20 fold
TRF2 levels (TRF2 [6]; viral delivery or ceramide treatment): reduced TRF2 levels
HGK activity after agonist (HGK): activated further; also recorded: potent activator of HGK

Compound: COc1cccc2c1C(=O)c1c(O)c3c(c(O)c1C2=O)C[C@@](O)(C(=O)CO)C[C@@H]3O[C@H]1C[C@H](N)[C@H](O)[C@H](C)O1 [doxorubicin]
induction of cardiac myocyte apoptosis (hypodiploid myocytes) (cardiomyocytes; doxorubicin administered to myocytes): induced cardiac myocyte apoptosis
TRF2 protein expression decreased (TRF2 [6]; cardiac myocytes, 1 μM doxorubicin, within 8 hr): 50%
time until loss of PARP (caspase-3 activation) was comparable to the TRF2 loss ([7]; cardiac myocytes, 1 μM doxorubicin): 48 h
survival as of day 16 ([8]; littermate controls): 7%
mice that had died by 7 days after injection ([8]; non-transgenic mice, n=14): 63%
survival as of day 16 ([8]; αMHC-TRF2 mice): 36%
deaths by 7 days after injection ([8]; αMHC-TRF2 mice, n=14): no deaths

HGK activity after agonist (HGK): activated
Compound: OO [H2O2]
apoptosis (hypodiploid DNA) (cardiomyocytes; [10]): induced
time to decrease of endogenous TRF2 (TRF2 [6]; cardiomyocytes, 100 μM H2O2): ≤ 2 h
PARP cleavage [7, 10]: induced
telomere erosion / shortening (telomere length [9]): induced
